Data as given in patent US8178535B2, “Substituted sulfonamide compounds having bradykinin 1 receptor activity and use thereof as medicaments” (Gruenenthal GmbH, priority 2008, dated 2012).

Legend:
[1] = molecular target: T1, human B1R receptor (hB1R) (Homo sapiens, UniProt P46663); test: FLIPR Ca2+ assay (Fluo-4) on CHO K1 cells stably transfected with the human B1R gene; format: cell-based; conditions: CHO-K1; test substance 10 μM; agonist Lys-Des-Arg9-bradykinin 0.5 nM; % inhibition compared to the maximum achievable inhibition
T1 construct: host or cells: CHO K1 cells
T1 sequence (P46663 1-353): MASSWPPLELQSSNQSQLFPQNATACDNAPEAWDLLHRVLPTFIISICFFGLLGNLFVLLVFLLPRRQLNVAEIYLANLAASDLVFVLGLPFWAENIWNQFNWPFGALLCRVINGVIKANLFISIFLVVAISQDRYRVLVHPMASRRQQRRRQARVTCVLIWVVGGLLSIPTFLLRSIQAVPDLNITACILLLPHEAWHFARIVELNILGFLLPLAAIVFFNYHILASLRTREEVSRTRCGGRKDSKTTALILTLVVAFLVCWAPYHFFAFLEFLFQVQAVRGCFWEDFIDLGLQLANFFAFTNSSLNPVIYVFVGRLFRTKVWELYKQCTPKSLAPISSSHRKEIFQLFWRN
Method in brief: (§1)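 CHO K1 cells stably expressing human or rat B1R, Fluo-4 loaded, read by FLIPR (Ex 488/Em 540, peak fluorescence). Compound at 10 μM gives % activation vs agonist. After 10 min, agonist added (human: Lys-Des-Arg9-bradykinin 0.5 nM; rat: Des-Arg9-bradykinin 100 nM); % inhibition relative to maximal achievable inhibition.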

[2] = molecular target: T2, B1R receptor of rats (rB1R) (Rattus norvegicus, UniProt P97583); test: FLIPR Ca2+ assay (Fluo-4) on CHO K1 cells stably transfected with the B1R gene of rats; format: cell-based; conditions: CHO-K1; test substance 10 μM; agonist Des-Arg9-bradykinin 100 nM; % inhibition compared to the maximum achievable inhibition
T2 construct: host or cells: CHO K1 cells
T2 sequence (P97583 1-337): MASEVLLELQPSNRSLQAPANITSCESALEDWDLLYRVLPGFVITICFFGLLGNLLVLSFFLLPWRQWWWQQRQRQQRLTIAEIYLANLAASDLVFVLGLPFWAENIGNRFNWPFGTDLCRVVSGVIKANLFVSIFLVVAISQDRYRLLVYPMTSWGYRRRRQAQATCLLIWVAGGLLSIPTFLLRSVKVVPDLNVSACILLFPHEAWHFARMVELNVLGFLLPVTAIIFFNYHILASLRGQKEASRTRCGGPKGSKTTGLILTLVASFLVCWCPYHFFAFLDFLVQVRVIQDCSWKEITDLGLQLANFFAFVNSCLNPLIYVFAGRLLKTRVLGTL
Method in brief: as §1

Compound | inhibition at 10 µM [1] [%] | inhibition at 10 µM [2] [%]
COc1cc(C)c(S(=O)(=O)N2CCCCC2CCCC(=O)N2CCn3c(Cc4cccnc4)ccc3C2)c(C)c1 (stereo not shown) [(105), 4-(1-(4-Methoxy-2,6-dimethylphenylsulfonyl)piperidin-2-yl)-1-(6-(pyridin-3-ylmethyl)-3,4-dihydropyrrolo[1,2-a]pyrazin-2(1H)-yl)butan-1-one] | 64 | 103
COc1cc(C)c(S(=O)(=O)N2CCCCC2COCC(=O)N2CCn3c(CCc4ccncc4)ccc3C2)c(C)c1 (stereo not shown) [(106), 2-((1-(4-Methoxy-2,6-dimethylphenylsulfonyl)piperidin-2-yl)methoxy)-1-(6-(2-(pyridin-4-yl)ethyl)-3,4-dihydropyrrolo[1,2-a]pyrazin-2(1H)-yl)ethanone] | 99 | 99
O=C(CC1CCCCN1S(=O)(=O)c1cccc(C(F)(F)F)c1)N1CCn2c(CCc3ccncc3)ccc2C1 (stereo not shown) [(107), 1-(6-(2-(Pyridin-4-yl)ethyl)-3,4-dihydropyrrolo[1,2-a]pyrazin-2(1H)-yl)-2-(1-(3-(trifluoromethyl)phenylsulfonyl)piperidin-2-yl)ethanone] | 26 | 75
COc1cc(C)c(S(=O)(=O)N2CCCCC2CCC(=O)N2CCn3c(CCc4ccncc4)ccc3C2)c(C)c1 (stereo not shown) [(108), 3-(1-(4-Methoxy-2,6-dimethylphenylsulfonyl)piperidin-2-yl)-1-(6-(2-(pyridin-4-yl)ethyl)-3,4-dihydropyrrolo[1,2-a]pyrazin-2(1H)-yl)propan-1-one] | 92 | 99
COc1cc(C)c(S(=O)(=O)N2CCCCC2CCCC(=O)N2CCn3c(CCc4ccncc4)ccc3C2)c(C)c1 (stereo not shown) [(109), 4-(1-(4-Methoxy-2,6-dimethylphenylsulfonyl)piperidin-2-yl)-1-(6-(2-(pyridin-4-yl)ethyl)-3,4-dihydropyrrolo[1,2-a]pyrazin-2(1H)-yl)butan-1-one] | 95 | 99
COc1cc(C)c(S(=O)(=O)N2CCCCC2CCCC(=O)N2CCn3c(ccc3-c3ccncc3)C2)c(C)c1 (stereo not shown) [(110), 4-(1-(4-Methoxy-2,6-dimethylphenylsulfonyl)piperidin-2-yl)-1-(6-(pyridin-4-yl)-3,4-dihydropyrrolo[1,2-a]pyrazin-2(1H)-yl)butan-1-one] | 84 | 101
COc1cc(C)c(S(=O)(=O)N2CCCCC2COCC(=O)N2CCn3c(Cc4cccnc4)ccc3C2)c(C)c1 (stereo not shown) [(111), 2-((1-(4-Methoxy-2,6-dimethylphenylsulfonyl)piperidin-2-yl)methoxy)-1-(6-(pyridin-3-ylmethyl)-3,4-dihydropyrrolo[1,2-a]pyrazin-2(1H)-yl)ethanone] | 100 | 98
COc1cc(C)c(S(=O)(=O)N2CCCCC2COCC(=O)N2CCn3cc(-c4ccncc4)nc3C2)c(C)c1 (stereo not shown) [(112), 2-((1-(4-Methoxy-2,6-dimethylphenylsulfonyl)piperidin-2-yl)methoxy)-1-(2-(pyridin-4-yl)-5,6-dihydroimidazo[1,2-a]pyrazin-7(8H)-yl)ethanone] | 100 | 101
COc1cc(C)c(S(=O)(=O)N2CCCCC2CCC(=O)N2CCn3c(Cc4cccnc4)ccc3C2)c(C)c1 (stereo not shown) [(113), 3-(1-(4-Methoxy-2,6-dimethylphenylsulfonyl)piperidin-2-yl)-1-(6-(pyridin-3-ylmethyl)-3,4-dihydropyrrolo[1,2-a]pyrazin-2(1H)-yl)propan-1-one] | 97 | 100

Further lines, results first:

inhibition at 10 µM [1] [%] | inhibition at 10 µM [2] [%] | Compound
79 | 98 | COc1cc(C)c(S(=O)(=O)N2CCCCC2CCC(=O)N2CCn3cc(-c4ccncc4)nc3C2)c(C)c1 (stereo not shown) [(114), 3-(1-(4-Methoxy-2,6-dimethylphenylsulfonyl)piperidin-2-yl)-1-(2-(pyridin-4-yl)-5,6-dihydroimidazo[1,2-a]pyrazin-7(8H)-yl)propan-1-one]
100 | 98 | COc1cc(C)c(S(=O)(=O)N2CCCCC2COCC(=O)N2CCn3cc(CCc4ccncc4)nc3C2)c(C)c1 (stereo not shown) [(115), 2-((1-(4-Methoxy-2,6-dimethylphenylsulfonyl)piperidin-2-yl)methoxy)-1-(2-(2-(pyridin-4-yl)ethyl)-5,6-dihydroimidazo[1,2-a]pyrazin-7(8H)-yl)ethanone]
78 | 102 | O=C(CC1CCCCN1S(=O)(=O)c1cccc(C(F)(F)F)c1)N1CCn2cc(CCc3ccncc3)nc2C1 (stereo not shown) [(116), 1-(2-(2-(pyridin-4-yl)ethyl)-5,6-dihydroimidazo[1,2-a]pyrazin-7(8H)-yl)-2-(1-(3-(trifluoromethyl)phenylsulfonyl)piperidin-2-yl)ethanone]
82 | 98 | COc1cc(C)c(S(=O)(=O)N2CCCCC2CCC(=O)N2CCn3cc(CCc4ccncc4)nc3C2)c(C)c1 (stereo not shown) [(117), 3-(1-(4-Methoxy-2,6-dimethylphenylsulfonyl)piperidin-2-yl)-1-(2-(2-(pyridin-4-yl)ethyl)-5,6-dihydroimidazo[1,2-a]pyrazin-7(8H)-yl)propan-1-one]
98 | 102 | COc1cc(C)c(S(=O)(=O)N2CCCCC2CCCC(=O)N2CCn3cc(CCc4ccncc4)nc3C2)c(C)c1 (stereo not shown) [(118), 4-(1-(4-Methoxy-2,6-dimethylphenylsulfonyl)piperidin-2-yl)-1-(2-(2-(pyridin-4-yl)ethyl)-5,6-dihydroimidazo[1,2-a]pyrazin-7(8H)-yl)butan-1-one]
90 | 107 | COc1cc(C)c(S(=O)(=O)N2CCCCC2CCCC(=O)N2CCn3cc(Cc4ccncc4)nc3C2)c(C)c1 (stereo not shown) [(119), 4-(1-(4-Methoxy-2,6-dimethylphenylsulfonyl)piperidin-2-yl)-1-(2-(pyridin-4-ylmethyl)-5,6-dihydroimidazo[1,2-a]pyrazin-7(8H)-yl)butan-1-one]
99 | 105 | COc1cc(C)c(S(=O)(=O)N2CCCCC2COCC(=O)N2CCn3cc(Cc4ccncc4)nc3C2)c(C)c1 (stereo not shown) [(120), 2-((1-(4-Methoxy-2,6-dimethylphenylsulfonyl)piperidin-2-yl)methoxy)-1-(2-(pyridin-4-ylmethyl)-5,6-dihydroimidazo[1,2-a]pyrazin-7(8H)-yl)ethanone]
66 | 51 | COc1cc(C)c(S(=O)(=O)N2CCCCC2CCC(=O)N2CCn3cc(Cc4ccncc4)nc3C2)c(C)c1 (stereo not shown) [(121), 3-(1-(4-Methoxy-2,6-dimethylphenylsulfonyl)piperidin-2-yl)-1-(2-(pyridin-4-ylmethyl)-5,6-dihydroimidazo[1,2-a]pyrazin-7(8H)-yl)propan-1-one]
